Melting point and EC50 data for 30 compounds are collected here from patent US20040077654A1, “Aryl piperidine and piperazine derivatives as inducers of ldl-receptor expression” (priority 2003, published 2004).

What is called melting point is the temperature of the solid-liquid transition.

Tested on in one data set: not given
Test: not given
Settings: not given
The compound `COc1ccc(C2CCN(CCCCNC(=O)c3ccc(NC(=O)c4ccc(Cl)cc4)cc3)CC2)c(OC)c1.Cl` yielded a melting point of 238 °C.

`CCOc1cc(C)ccc1C1CCN(CCCCNS(=O)(=O)c2ccc(-c3ccc(C(F)(F)F)cc3)cc2)CC1.Cl` gave a melting point of 188 to 190 °C.

`COc1cc(C)ccc1N1CCN(CCCCNC(=O)c2ccc(NC(=O)c3ccc(Cl)cc3)cc2)CC1.Cl` (hydrate or solvate) registered a melting point of 227 °C.

For `CCOc1cc(C)ccc1C1CCN(CCCCNC(=O)c2ccc(NC(=O)c3ccc(Cl)cc3)cc2)CC1` [Example 2, 4-(4-chloro-benzoylamino)-N-{4-[4-(2-ethoxy-4-methyl-phenyl)-piperidin-1-yl]-butyl}-benzamide], the melting point came out at 254 °C.

`CCOc1cc(CC)ccc1C1CCN(CCCCNC(=O)c2ccc(NC(=O)c3ccc(Cl)cc3)cc2)CC1` [Example 3, 4-(4-chloro-benzoylamino)-N-{4-[4-(2-ethoxy-4-ethyl-phenyl)-piperidin-1-yl]-butyl}-benzamide] had a melting point of 250 °C.

`CCc1ccc(C2CCN(CCCCNC(=O)c3ccc(NC(=O)c4ccc(Cl)cc4)cc3)CC2)c(OC)c1` [Example 4, 4-(4-chloro-benzoylamino)-N-{4-[4-(4-ethyl-2-methoxy-phenyl)-piperidin-1-yl]-butyl}-benzamide]: the melting point turned out to be 235 °C.

`COc1cc(C(C)C)ccc1C1CCN(CCCCNC(=O)c2ccc(NC(=O)c3ccc(Cl)cc3)cc2)CC1` [Example 5, 4-(4-chloro-benzoylamino)-N-{4-[4-(4-isopropyl-2-methoxy-phenyl)-piperidin-1-yl]-butyl}-benzamide] registered a melting point of 241 °C.

`CCOc1cc(C(C)C)ccc1C1CCN(CCCCNC(=O)c2ccc(NC(=O)c3ccc(Cl)cc3)cc2)CC1` [Example 6, 4-(4-chloro-benzoylamino)-N-{4-[4-(2-ethoxy-4-isopropyl-phenyl)-piperidin-1-yl]-butyl}-benzamide] displayed a melting point of 242 °C.

In turn, `O=C(NCCCCN1CCC(c2ccc3c(c2)OCO3)CC1)c1ccc(NC(=O)c2ccc(Cl)cc2)cc1` [Example 8, 4-(4-chloro-benzoylamino)-N-[4-(4-benzo[1,3]dioxol-5-yl-piperidin-1-yl]-butyl}-benzamide] gave a melting point of 238 to 248 °C.

On to `O=C(NCCCCN1CCC(c2ccc3ccccc3c2)CC1)c1ccc(NC(=O)c2ccc(Cl)cc2)cc1` [Example 9, 4-(4-chloro-benzoylamino)-N-[4-(4-naphthalen-2-yl-piperidin-1-yl]-butyl}-benzamide], for which the melting point was determined as 270 °C.

`O=C(NCCCCN1CCC(c2ccc3c(c2)CCCC3)CC1)c1ccc(NC(=O)c2ccc(Cl)cc2)cc1` [Example 10, 4-(4-chloro-benzoylamino)-N-{4-[4-(5,6,7,8-tetrahydro-naphthalen-2-yl)-piperidin-1-yl]-butyl}-benzamide] yielded a melting point of 285 °C.

`O=C(NCCCCN1CCC(c2cccc3ccccc23)CC1)c1ccc(NC(=O)c2ccc(Cl)cc2)cc1` [Example 11, 4-(4-chloro-benzoylamino)-N-[4-(4-naphthalen-1-yl-piperidin-1-yl]-butyl}-benzamide] displayed a melting point of 264 °C.

For `CSc1ccccc1C1CCN(CCCCNC(=O)c2ccc(-c3ccc(C(F)(F)F)cc3)cc2)CC1` [Example 13, 4′-Trifluoromethyl-biphenyl-4-carboxylic acid {4[4-(2-methylsulfanyl-phenyl)-piperidin-1-yl]-butyl}-amide], the melting point fell in the range of 191 to 192 °C.

`Cn1cc(C2CCN(CCCCNC(=O)c3ccc(-c4ccc(C(F)(F)F)cc4)cc3)CC2)c2ccccc21` [Example 14, 4′-Trifluoromethyl-biphenyl-4-carboxylic acid {4-[4-(1−methyl-1H-indol-3-yl)-piperidin-1-yl]-butyl}-amide] had a melting point of 205 to 206 °C.

Consider `O=C(NCCCCN1CCC(c2csc3ccccc23)CC1)c1ccc(-c2ccc(C(F)(F)F)cc2)cc1` [Example 16, 4′-Trifluoromethyl-biphenyl-4-carboxylic acid [4-(4-benzo[b]thiophen-3-yl-piperidin-1-yl)-butyl]-amide], for which the melting point turned out to be 264 °C.

Compound `CCOc1cc(C)ccc1NC1CCN(CCCCNC(=O)c2ccc(-c3ccc(C(F)(F)F)cc3)cc2)CC1` [Example 19, 4′-Trifluoromethyl-biphenyl-4-carboxylic acid {4-[4-(2-ethoxy-4-methyl-phenylamino)-piperidin-1-yl]-butyl}-amide] returned a melting point of 162 °C.

In turn, `CCOc1cc(C)ccc1N(C1CCN(CCCCNC(=O)c2ccc(-c3ccc(C(F)(F)F)cc3)cc2)CC1)S(=O)(=O)c1ccccc1` [Example 20, 4′-Trifluoromethyl-biphenyl-4-carboxylic Acid (4-{4-[benzenesulfonyl-(2-ethoxy-4-methyl-phenyl)-amino]-piperidin-1-yl}butyl)-amide] showed a melting point of 110 °C.

As for `CCOc1cc(C)ccc1C1CCN(CCCCC(=O)Nc2ccc(-c3ccc(C(F)(F)F)cc3)cc2)CC1` [Example 24, 5-[4-(2-Ethoxy-4-methyl-phenyl)-piperidin-1-yl]-pentanoic acid (4′-trifluoromethyl-biphenyl-4-yl)-amide], the melting point stood at 178 °C.

As for `COc1cc(C(C)C)ccc1C1CCN(CCCCNC(=O)c2sc(-c3ccc(C(F)(F)F)cc3)nc2C)CC1` [Example 27, 4-Methyl-2-(4-trifluoromethyl-phenyl)-thiazole-5-carboxylic acid {4-[4-(4-isopropyl-2-methoxy-phenyl)-piperidin-1-yl]-butyl}-amide], the melting point was found to be 170 °C.

In the case of `CCOc1cc(C)ccc1C1CCN(CCCCNC(=O)c2ccc3c(c2)cc(-c2ccc(Cl)cc2)n3C)CC1` [Example 28, 2-(4-Chloro-phenyl)-1-methyl-1H-indole-5-carboxylic Acid {4-[4-(2-ethoxy-4-methyl-phenyl)-piperidin-1-yl]-butyl}-amide], the melting point was 174 to 175 °C.

`CCOc1cc(C)ccc1C1CCN(CCCCNC(=O)c2ccc3oc(-c4ccc(C(F)(F)F)cc4)cc3c2)CC1` [Example 29, 2-(4-Trifluoromethyl-phenyl)-benzofuran-5-carboxylic Acid {4-[4-(2-ethoxy-4-methyl-phenyl)-piperidin-1-yl]-butyl}-amide] came in with a melting point of 200 °C.

With `CCOc1cc(C)ccc1C1CCN(CCCCNC(=O)c2ccc3oc(-c4ccc(Cl)cc4)cc3c2)CC1` [Example 30, 2-(4-Chloro-phenyl)-benzofuran-5-carboxylic acid {4-[4-(2-ethoxy-4-methylphenyl)-piperidin-1-yl]-butyl}-amide], the melting point was 145 to 158 °C.

`CCOc1cc(C)ccc1C1CCN(CCCCNC(=O)c2ccc(C=Cc3ccc(C(F)(F)F)cc3)cc2)CC1` [Example 33, N-{4-[4-(2-Ethoxy-4-methyl-phenyl)-piperidin-1-yl]-butyl}-4-[2-(4-trifluoromethylphenyl)-vinyl]-benzamide] registered a melting point of 210 °C.

As for `CCOc1cc(C)ccc1C1CCN(CCCCNC(=O)c2ccc(OCc3ccc(C(F)(F)F)cc3)cc2)CC1` [Example 34, N-{4-[4-(2-Ethoxy-4-methyl-phenyl)-piperidin-1-yl]-butyl}4-(4-trifluoromethyl-benzyloxy)-benzamide], the melting point is 180 to 182 °C.

With `CCOc1ccc(CC2CCN(CCCCNC(=O)c3ccc(-c4ccc(C(F)(F)F)cc4)cc3)CC2)c(OCC)c1` [Example 38, 4′-trifluoromethyl-biphenyl-4-carboxylic acid {4-[4-(2,4-diethoxy-benzyl)-piperidin-1-yl]-butyl}amide], the melting point lay in the range of 136 to 137 °C.

`Cn1cc(C2CCN(CCCCNC(=O)c3ccc(-c4ccc(C#N)cc4)cc3)CC2)c2ccccc21` [Example 40, 4′-Cyano-biphenyl-4-carboxylic acid {4-[4-(1-methyl-1H-indol-3-yl)-piperidin-1-yl]-butyl}-amide] showed a melting point of 180 °C.

The test system of a further data set is LDL-r promoter. Kind of data set: LDL-r promoter luciferase reporter gene assay in stably transfected HepG2 cells. The data set is classed as cell-based, human. The conditions noted are these: HepG2 cells with LDL-r promoter/luciferase construct; 24 hours incubation in RPMI with 2% lipoprotein-deficient serum; induction of luciferase activity; read-out: In vitro (IC50). The procedure:
The ability of the compounds of the invention to induce LDL-r expression by human hepatocytes in vitro is determined using a human hepatocarcinoma cell line, Hep G2, as a model system. A reporter gene assay using the LDL-R promotor in front of the Luciferase reporter gene is used as a primary screen.
HepG2 cells, stably transfected with a construct comprising the LDL-r promoter and the luciferase reporter gene, were seeded at 50.000 cells/well in 96 well plates. After 1 day, cells were incubated with compounds for 24 hours in RPMI medium containing 2% of lipoprotein-deficient serum. Compounds were tested from 10^−6M to 10^−9M. Cell lysates were prepared and the luciferase activity was measured by the luciferase assay system (Promega). Induction of luciferase activity was calculated taking untreated cells as control and ED50 of each compounds was determinated compared to the ED50 of an internal standart.
On the technique in general: A reporter such as luciferase makes a cellular process visible.
Turning to `Cc1cc(C2CCN(CCCCNC(=O)c3ccc(-c4ccc(C(F)(F)F)cc4)cc3)CC2)c(C)cc1OCc1ccccn1` [Example 7], the EC50 is 4 nM.

As to `COc1c(C2CCN(CCCCOc3ccc(-c4ccc(C#N)cc4)cc3)CC2)ccc2ccccc12` [Example 26, 4′-{4-[4-(1-Methoxy-naphtalen-2-yl)-piperidin-1-yl]-butoxy}-biphenyl-4-carbonitrile], the EC50 was 1 nM.

As for `O=C(NCCCCN1CCC(c2ccc3c(c2OCC2CC2)CCCC3)CC1)c1ccc2oc(-c3ccc(Cl)c(Cl)c3)cc2c1` [Example 31, 2-(3,4-Dichloro-phenyl)-benzofuran-5-carboxylic acid {4-[4-(1-cyclopropylmethoxy-5,6,7,8-tetrahydro-naphtalen-2-yl)-piperidin-1-yl]-butyl}-amide], the EC50 is 20 nM.

Consider `O=C(NCCCCN1CCC(c2ccc3c(c2OCC2CC2)CCCC3)CC1)c1ccc2oc(-c3ccc(C(F)(F)F)nc3)cc2c1` [Example 32, 2-(6-Trifluoromethyl-pyridin-3-yl)-benzofuran-5-carboxylic acid {4-[4-(1-cyclopropylmethoxy-5,6,7,8-tetrahydronaphtalen-2-yl)-piperidin-1-yl]-butyl}-amide], for which the EC50 came out at 13 nM.

Still in this data set, the particulars now being: Homo sapiens; HepG2 cells with LDL-r promoter/luciferase construct; 24 hours incubation in RPMI with 2% lipoprotein-deficient serum; induction of luciferase activity; read-out: In vitro (IC50).
Regarding `CCOc1cc(C)ccc1N(C1CCN(CCCCNC(=O)c2ccc(-c3ccc(C(F)(F)F)cc3)cc2)CC1)S(=O)(=O)c1ccccc1` [Example 20, 4′-Trifluoromethyl-biphenyl-4-carboxylic Acid (4-{4-[benzenesulfonyl-(2-ethoxy-4-methyl-phenyl)-amino]-piperidin-1-yl}butyl)-amide], the EC50 worked out at 117 nM.

Take `CCOc1cc(C)ccc1C1CCN(CCCCNC(=O)c2ccc(C=Cc3ccc(C(F)(F)F)cc3)cc2)CC1` [Example 33, N-{4-[4-(2-Ethoxy-4-methyl-phenyl)-piperidin-1-yl]-butyl}-4-[2-(4-trifluoromethylphenyl)-vinyl]-benzamide]: the EC50 stood at 30 nM.

With `Cn1cc(C2CCN(CCCCNC(=O)c3ccc(-c4ccc(C#N)cc4)cc3)CC2)c2ccccc21` [Example 40, 4′-Cyano-biphenyl-4-carboxylic acid {4-[4-(1-methyl-1H-indol-3-yl)-piperidin-1-yl]-butyl}-amide], the EC50 came out at 10 nM.
